Measured values: patent US9993570B2, “Radiolabeled tracers for poly (ADP-ribose) polymerase-1 (PARP-1), methods and uses therefor” (Washington University, priority 2014, dated 2018)
“Also recorded” adds a separate entry of the source.

What was measured:
MDA-MB-436 tumors = experiment: microPET imaging with [18F]12, MDA-MB-436 xenograft tumors; type: in vivo, mice; details: baseline, 0-60 min post-tracer injection
Description: (§1) This example illustrates the visualization of tumor tissue in microPET in mice. MDA-MB-436 human breast cancer xenograft tumors in immune-deficient mice were visualized by PET using [^18F]12.
MDA-MB-436 and MDA-MB-231 human breast cancer cells were maintained in cell culture under standard conditions with 5% CO2 atmosphere using Eagle's minimum essential medium (with Earle's balanced salt solution and 2 mM L-glutamine) supplemented with 2 mM E-glutamine, 1 mM sodium pyruvate, 0.1 mM non-essential amino acids 2% vitamins for MEM, and 5% fetal bovine serum. Cells in exponential growth were trypsinized and harvested for tumor implantation. After counting, cells were re-suspended in ice-cold 1:1 Matrigel and PBS to give the desired concentration and held on ice.
Mature female athymic nu/nu mice from Charles River Laboratories are allowed to acclimate in an AALAC accredited housing facility for at least 1 week prior to tumor implantation for these serial imaging studies. Female nu/nu mice were implanted in the mammary fat pads (near the auxiliary lymph nodes) with ˜8×10^6 MDA-MB-436 breast cancer cells in ˜100 μL of 1:1 Matrigel:PBS. Imaging studies were conducted 2-3 weeks post implantation.
(§2) Tumor-bearing mice were placed in an induction chamber containing ˜2% isoflurane/oxygen and then secured to a custom double bed for placement of tail vein catheters; anesthesia was maintained via nose-cone at ˜1% isoflurane/oxygen for the dynamic imaging procedure. The mice were injected with 150-200 μCi of [^18F]12 and scanned for 0-60 min using Focus 220 and Inveon PET/CT scanners. The standard uptake values (SUVs) were generated from manually drawn regions of interests for tumors and surrounding ‘background’ tissue. Visualization of specific uptake was determined by comparison of baseline scans with images acquired by tracer injection 20 minutes after pre-treatment with the blocking agents olaparib (50 mg/kg, IP) or 12 (1 mg/kg, IP).

MDA-MB-231 tumors = experiment: microPET imaging with [18F]12, MDA-MB-231 tumors; type: in vivo, mice; details: baseline, 60 minute dynamic scan
Description: as §1, §2
This example illustrates uptake of Compound 12 ([^18F]WC-4-138) in mice. Mature female athymic nude mice (Charles River Laboratories) were implanted with 10^6 SCC1 cells or 10^7 MDA-MB-231 cells into the mammary fat pads. Mice bearing SCC1 tumors were imaged at 5 weeks and mice bearing MDA-MB-231 cells were imaged at 2.5 weeks after implant. Mice were anesthetized with 2% isoflurane/oxygen and maintained at 1% isoflurane/oxygen via nose cone throughout the imaging procedure. Whole animal microCT images were acquired on an Inveon PET/CT scanner. The mice were injected via tail vein with 11.36±0.5 MBq (307±13 μCi) of [^18F]WC(4)-138 and underwent a 60 minute dynamic scan using Focus 220 or Inveon PET/CT scanners. The microPET and microCT images were coregistered using Integrated Research Workflow software (Siemens). Regions of interest were drawn over tumors to determine time activity curves. For drug treatment studies, animals reached intraperitoneal injections of 50 mg/kg olaparib or iniparib 30 minutes before imaging. Mice were imaged at baseline, or 30 minutes after IP injection of olaparib or iniparib. Arrows indicate location of tumors as identified on CT.
In FIG. 8, mice were imaged at baseline, or 30 minutes after IP injection of olaparib or iniparib. (A) The percent of injected dose per ml was calculated for each MDA/MB-231 tumor at baseline or after drug treatment. […] Tracer uptake was unchanged in iniparib-treated mice (p=0.1098 as determined by a paired t test, n=6 tumors).

[1] = Estimated human dosimetry from mouse biodistribution study (MIRD)
From the text: Estimates were obtained from the organ residence times calculated from the mouse biodistribution data, shown in Table 1, using standard MIRD methodology.

SMILES: O=C1NCCn2c(-c3ccc(OCC[18F])cc3)nc3cccc1c32 [[^18F]12]
- [18F]12 uptake in MDA-MB-436 tumors (microPET) (MDA-MB-436 tumors): increased uptake that was distinguishable from background; also recorded: progressively accumulated in the tumor; also recorded: accumulation of the radioactivity in these tumors
- tracer uptake in MDA-MB-231 tumors (microPET images) (MDA-MB-231 tumors): abundantly taken up in tumors
- Estimated human dosimetry, Adrenals ([1]; Female): 0.052 rad/mCi
- Estimated human dosimetry, Brain ([1]; Female): 0.022 rad/mCi
- Estimated human dosimetry, Breasts ([1]; Female): 0.019 rad/mCi
- Estimated human dosimetry, Effective Dose ([1]; Female): 0.057 rem/mCi
- Estimated human dosimetry, Effective Dose Equivalent ([1]; Female): 0.075 rad/mCi
- Estimated human dosimetry, Gallbladder Wall ([1]; Female): 0.033 rad/mCi
- Estimated human dosimetry, Heart Wall ([1]; Female): 0.047 rad/mCi
- Estimated human dosimetry, Kidneys ([1]; Female): 0.093 rad/mCi
- Estimated human dosimetry, LLI Wall ([1]; Female): 0.036 rad/mCi
- Estimated human dosimetry, Liver ([1]; Female): 0.065 rad/mCi
- Estimated human dosimetry, Lungs ([1]; Female): 0.045 rad/mCi
- Estimated human dosimetry, Muscle ([1]; Female): 0.035 rad/mCi
- Estimated human dosimetry, Osteogenic Cells ([1]; Female): 0.203 rad/mCi
- Estimated human dosimetry, Ovaries ([1]; Female): 0.045 rad/mCi
- Estimated human dosimetry, Pancreas ([1]; Female): 0.064 rad/mCi
- Estimated human dosimetry, Red Marrow ([1]; Female): 0.069 rad/mCi
- Estimated human dosimetry, Skin ([1]; Female): 0.019 rad/mCi
- Estimated human dosimetry, Small Intestine ([1]; Female): 0.030 rad/mCi
- Estimated human dosimetry, Spleen ([1]; Female): 0.133 rad/mCi
- Estimated human dosimetry, Stomach Wall ([1]; Female): 0.030 rad/mCi
- Estimated human dosimetry, Thymus ([1]; Female): 0.026 rad/mCi
- Estimated human dosimetry, Thyroid ([1]; Female): 0.038 rad/mCi
- Estimated human dosimetry, Total Body ([1]; Female): 0.039 rad/mCi
- Estimated human dosimetry, ULI Wall ([1]; Female): 0.031 rad/mCi
- Estimated human dosimetry, Urinary Bladder Wall ([1]; Female): 0.301 rad/mCi
- Estimated human dosimetry, Uterus ([1]; Female): 0.053 rad/mCi
- Estimated human dosimetry, Adrenals ([1]; Male): 0.043 rad/mCi
- Estimated human dosimetry, Brain ([1]; Male): 0.019 rad/mCi
- Estimated human dosimetry, Effective Dose ([1]; Male): 0.047 rem/mCi
- Estimated human dosimetry, Effective Dose Equivalent ([1]; Male): 0.062 rad/mCi
- Estimated human dosimetry, Gallbladder Wall ([1]; Male): 0.028 rad/mCi
- Estimated human dosimetry, Heart Wall ([1]; Male): 0.038 rad/mCi
- Estimated human dosimetry, Kidneys ([1]; Male): 0.083 rad/mCi
- Estimated human dosimetry, LLI Wall ([1]; Male): 0.029 rad/mCi
- Estimated human dosimetry, Liver ([1]; Male): 0.050 rad/mCi
- Estimated human dosimetry, Lungs ([1]; Male): 0.035 rad/mCi
- Estimated human dosimetry, Muscle ([1]; Male): 0.026 rad/mCi
- Estimated human dosimetry, Osteogenic Cells ([1]; Male): 0.155 rad/mCi
- Estimated human dosimetry, Pancreas ([1]; Male): 0.055 rad/mCi
- Estimated human dosimetry, Red Marrow ([1]; Male): 0.061 rad/mCi
- Estimated human dosimetry, Skin ([1]; Male): 0.016 rad/mCi
- Estimated human dosimetry, Small Intestine ([1]; Male): 0.026 rad/mCi
- Estimated human dosimetry, Spleen ([1]; Male): 0.110 rad/mCi
- Estimated human dosimetry, Stomach Wall ([1]; Male): 0.024 rad/mCi
- Estimated human dosimetry, Testes ([1]; Male): 0.022 rad/mCi
- Estimated human dosimetry, Thymus ([1]; Male): 0.020 rad/mCi
- Estimated human dosimetry, Thyroid ([1]; Male): 0.033 rad/mCi
- Estimated human dosimetry, Total Body ([1]; Male): 0.031 rad/mCi
- Estimated human dosimetry, ULI Wall ([1]; Male): 0.025 rad/mCi
- Estimated human dosimetry, Urinary Bladder Wall ([1]; Male): 0.220 rad/mCi
